Where “and” joins values, the source holds several entries; their conditions need not be identical. Equal entries are not always repeated.
Columns and labels:
[1] = biological target: L1 EN (LINE-1 retrotransposon endonuclease domain) (Homo sapiens, UniProt O00370, N5T); experiment: Fluorescent oligonucleotide EN nicking activity assay; assay type: biochemical
APE1 = biological target: T1, APE1 (Homo sapiens, UniProt P27695); experiment: APE1 fluorescent oligonucleotide activity assay (abasic site substrate); assay type: biochemical; settings: for APE1 percent activity, Replicate 1 / APE1 percent activity, Replicate 2 / APE1 percent activity, Replicate 3 / APE1 percent activity, average: compound at 25 μM; for APE1 percent activity, average: average of 3 replicates; for activity at 25 µM: inhibitors at 25 μM, relative to 0 μM inhibitor control, mean ± s.d., 3 independent experiments, read-out: APE1 activity (%)
T1 construct: purchased New England Biolabs (NEB) M0282S

[2] = system: substrate oligonucleotide used in the EN activity assay; assay type: binding; parameters: key to Binding Detected? (Y/N): Binding Detected? (Y/N); Binding Detected? (Y/N)
L1 retrotransposition = experiment: HeLa dual-luciferase L1 retrotransposition assay; assay type: cell-based, human; settings: HeLa cells
[3] = [Inhibitor] 1 μM, technical replicates 1-3, Fig. 2b source data, 1 µM
[4] = [Inhibitor] 5 μM, technical replicates 1-3, Fig. 2b source data, 5 µM
[5] = [Inhibitor] 10 μM, technical replicates 1-3, Fig. 2b source data, 10 µM
[6] = [Inhibitor] 10 μM, technical replicates 1-3, Fig. 2b source data, read-out: EN activity, percent of no inhibitor control
[7] = [Inhibitor] 25 μM, technical replicates 1-3, Fig. 2b source data, 25 µM
[8] = [Inhibitor] 25 μM, technical replicates 1-3, Fig. 2b source data, read-out: EN activity, percent of no inhibitor control
[9] = [Inhibitor] 50 μM, technical replicates 1-3, Fig. 2b source data, 50 µM
[10] = [Inhibitor] 50 μM, technical replicates 1-3, Fig. 2b source data, read-out: EN activity, percent of no inhibitor control
[11] = [Inhibitor] 100 μM, technical replicates 1-3, Fig. 2b source data, 100 µM
[12] = [Inhibitor] 250 μM, technical replicates 1-3, Fig. 2b source data, 250 µM
[13] = [Inhibitor] 250 μM, technical replicates 1-3, Fig. 2b source data, read-out: EN activity, percent of no inhibitor control
[14] = [Inhibitor] 100 μM, technical replicates 1-3, Fig. 2b source data, read-out: EN activity, percent of no inhibitor control
[15] = [Inhibitor] 500 μM, technical replicates 1-3, Fig. 2b source data, 500 µM
[16] = [Inhibitor] 500 μM, technical replicates 1-3, Fig. 2b source data, read-out: EN activity, percent of no inhibitor control
[17] = [Inhibitor] 1000 μM, technical replicates 1-3, Fig. 2b source data, 1000 µM
[18] = [Inhibitor] 1000 μM, technical replicates 1-3, Fig. 2b source data, read-out: EN activity, percent of no inhibitor control
[19] = [Inhibitor] 2500 μM, technical replicates 1-3, Fig. 2b source data, 2500 µM
[20] = [Inhibitor] 1 μM, technical replicates 1-3, Fig. 2b source data, read-out: EN activity, percent of no inhibitor control
[21] = [Inhibitor] 5 μM, technical replicates 1-3, Fig. 2b source data, read-out: EN activity, percent of no inhibitor control

Chain of L1 EN (LINE-1 retrotransposon endonuclease domain) (O00370 1-239 N5T): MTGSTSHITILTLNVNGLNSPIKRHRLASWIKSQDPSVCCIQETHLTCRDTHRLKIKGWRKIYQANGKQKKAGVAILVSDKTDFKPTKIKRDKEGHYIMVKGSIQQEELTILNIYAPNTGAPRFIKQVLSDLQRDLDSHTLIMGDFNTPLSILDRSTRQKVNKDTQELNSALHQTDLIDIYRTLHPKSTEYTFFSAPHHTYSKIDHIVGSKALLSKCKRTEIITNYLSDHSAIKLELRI

Row | Structure (SMILES) | EN activity, percent of no inhibitor control [1, 3] | EN activity, percent of no inhibitor control [1, 4] | EN activity, percent of no inhibitor control [1, 5] | remaining activity at 10 µM [1, 6] [%] | EN activity, percent of no inhibitor control [1, 7] | EN activity, percent of no inhibitor control [1, 9] | remaining activity at 50 µM [1, 10] [%] | EN activity, percent of no inhibitor control [1, 11] | EN activity, percent of no inhibitor control [1, 12] | remaining activity at 250 µM [1, 13] [%] | APE1 percent activity, Replicate 1 (APE1) [%] | APE1 percent activity, Replicate 2 (APE1) [%] | APE1 percent activity, Replicate 3 (APE1) [%] | APE1 percent activity, average (APE1) [%] | activity at 25 µM (APE1) [%] | Binding Detected? (Y/N) [2] | remaining activity at 100 µM [1, 14] [%] | EN activity, percent of no inhibitor control [1, 15] | EN activity, percent of no inhibitor control [1, 17] | remaining activity at 1000 µM [1, 18] [%] | also measured
1 | COc1ccc([N+](=O)[O-])cc1NC(=O)c1ccc2c(c1)N(Cc1cc(C)ccc1C)C(=O)c1ccccc1S2(=O)=O [AD34] | 107.144% and 82.3328% (2×) | 106.747% and 72.7727% (2×) | 61.3218% | 63.6 | 17.0147% | 2.345% | 1.88 | -0.6009% and -1.977% (2×) | 6.512% | 4.89 | 115.867 | 110.244 | 115.389 | 113.833 | 114 ± 3.1 | N |  |  |  |  | remaining activity at 25 µM [1, 8]: 13.4%; Effect on L1 retrotransposition (L1 retrotransposition): did not significantly impact retrotransposition
2 | NC[C@H]1CC[C@H](C(=O)O)CC1 [tranexamic acid, reference compound] |  |  |  |  |  |  |  |  |  |  |  |  |  |  |  |  |  |  |  |  | IC50 in the fluorescent oligonucleotide assay [1]: does not inhibit sufficiently to calculate an; inhibition at 25000 µM ([1]; 25 mM, highest soluble concentration): ~75%
3 | O=C(O)C1CCC(Cn2c(=S)[nH]c3ccc(F)cc3c2=O)CC1 (centres unmarked) [AD41] |  |  | 93.0871% and 88.0691% | 99.2 |  | 81.1063% and 95.3657% | 81.9 | 73.6781% and 70.7755% | 52.6672% and 53.2546% | 37.1 | 117.184 | 102.457 | 114.725 | 111.455 | 112 ± 7.9 | N | 89.5 | 15.8485% and 15.0123% | 2.51% and 3.937% | 3.26 | remaining activity at 500 µM [1, 16]: 16.8%; EN activity, percent of no inhibitor control [1, 19]: -0.5395% and 2.354% and 1.088%; EN activity, percent of no inhibitor control ([1]; [Inhibitor] 5000 μM, technical replicates 1-3, Fig. 2b source data, 5000 µM): 3.138% and -0.1325% and -0.6231%
4 | Cc1cc(O[C@H](C)C(=O)NC[C@H]2CC[C@H](C(=O)O)CC2)c2c3c(c(=O)oc2c1)CCC3 [AD50] |  |  | 88.1732% and 95.3255% | 89.8 | 105.309% and 98.5437% and 118.945% | 102.098% and 94.5993% | 99.1 | 99.5828% and 92.7301% | 85.2034% and 69.8502% | 78.9 | 117.885 | 112.48 | 116.717 | 115.694 | 116 ± 2.8 | N | 105 | 1.6976% and 1.409% | 0.8764% and -0.04895% and -0.3009% |  | remaining activity at 500 µM [1, 16]: 1.24%; EN activity, percent of no inhibitor control [1, 19]: 1.256% and 0.4525% and 1.333%
5 | O=C(Nc1ccc(S(=O)(=O)NCc2ccco2)cc1)c1cc(NS(=O)(=O)c2cccs2)cc(NS(=O)(=O)c2cccs2)c1 [AD18] | 113.77% and 114.319% | 110.276% and 111.074% | 114.402% and 118.423% | 107 | 99.7158% and 102.855% | 87.6677% and 95.4608% | 82 | 45.2675% and 31.8714% | -2.192% and 4.074% and 1.188% |  | 95.6087 | 100.395 | 113.415 | 103.14 | 103 ± 9.2 | N | 46.3 | 1.364% and -0.7511% and -2.792% | 4.465% and 5.692% | 3.32 | remaining activity at 1 µM [1, 20]: 128%; remaining activity at 5 µM [1, 21]: 98.7%; remaining activity at 25 µM [1, 8]: 118%; Effect on L1 retrotransposition (L1 retrotransposition): did not significantly impact retrotransposition
6 | Cc1ccc(NC(=O)CSc2nc(-c3ccccc3F)nc3c2Cc2c(CO)cnc(C)c2O3)cc1 [AD28] | 96.841% and 106.468% | 89.9598% and 81.1542% |  |  |  | 92.3894% and 103.331% | 89.2 | 86.184% and 81.609% | 59.9195% and 84.2317% and 41.5158% |  | 117.021 | 119.222 | 118.718 | 118.32 | 118 ± 1.2 | N | 79.1 | 4.092% and 40.0005% and 32.2238% | 23.297% and 19.7447% | 37.6 | remaining activity at 1 µM [1, 20]: 95.4%; remaining activity at 5 µM [1, 21]: 92%; EN activity, percent of no inhibitor control ([1]; [Inhibitor] 20 μM, technical replicates 1-3, Fig. 2b source data, 20 µM): 104.354% and 99.6299%; remaining activity at 20 µM ([1]; [Inhibitor] 20 μM, technical replicates 1-3, Fig. 2b source data, read-out: EN activity, percent of no inhibitor control): 87.7%; EN activity, percent of no inhibitor control ([1]; [Inhibitor] 750 μM, technical replicates 1-3, Fig. 2b source data, 750 µM): 45.0869% and 49.2787%; remaining activity at 750 µM ([1]; [Inhibitor] 750 μM, technical replicates 1-3, Fig. 2b source data, read-out: EN activity, percent of no inhibitor control): 52.5%

From paper PMC11078990, “Identification and characterization of small molecule inhibitors of the LINE-1 retrotransposon endonuclease” (Nature Communications, 2024)
